Values after ≈ are worked out from the molar mass of the structure shown. Where a SMILES comes first, the peptide text is derived from it. Bridges are numbered along the chain shown (N, C = ends).
Columns and labels:
[1] = test system: S. pullorum CVCC1789; assay type: cell-based, Salmonella pullorum
Method: (§1) The antimicrobial activity of peptides was determined by the microbroth dilution method ([Zhang et al., 2014]). The bacterial strains were incubated in Mueller-Hinton (MH) medium at 28°C or 37°C overnight. Bacteria (1 × 10^5 CFU/mL) were added into 96-well plates, followed by the addition of serial dilutions of peptides (from 0.0625 to 128 μg/mL). The plates were incubated at 37°C for 18–24 h. The minimal inhibitory concentration (MIC) value was determined as the lowest peptide concentration at which no bacterial growth was observed.

[2] = assay type: cell-based, Streptococcus enteritidis
Method: as §1

[3] = test system: E. coli CVCC1515; assay type: cell-based, Escherichia coli
Method: as §1

[4] = test system: E. coli CVCC25922; assay type: cell-based, Escherichia coli
Method: as §1

[5] = test system: LPS; experiment: LPS binding, BODIPY-TR-cadaverine (BC) probe displacement; details: 0.5 μM LPS, 5 μM BC, Tris buffer pH 7.4; peptides 0.049 to 50 μM
Method: The BODIPY’-TR-cadaverine (BC) probe was used to determine the ability of peptides to bind to LPS ([Wang et al., 2020]). 0.5 μM LPS was incubated with 5 μM BC in […] Tris buffer (pH 7.4) for 4 h at 37°C. Subsequently, the peptides were added into the mixture and the final concentrations of peptides ranged from 0.049 to 50 μM. Ampicillin was used as the negative control. Changes in fluorescence were measured by a fluorescence spectrophotometry at room temperature (excitation/emission, 580/620 nm).

[6] = test system: S. aureus ATCC546; assay type: cell-based, Staphylococcus aureus
Method: as §1

[7] = test system: S. aureus ATCC25923; assay type: cell-based, Staphylococcus aureus
Method: as §1

[8] = test system: S. hyicus 15095; assay type: cell-based, Staphylococcus hyicus
Method: as §1

[9] = test system: inner membrane of E. tarda; experiment: Inner membrane penetration, PI staining by flow cytometry; assay type: cell-based, Edwardsiella tarda; details: 1× MIC, 5–30 min at 37°C, 1 × 10^8 CFU/mL
Method: Mid-log phase E. tarda cells (1 × 10^8 CFU/mL) were incubated with or without 1× MIC peptides solutions at 37°C for 5, 15, and 30 min, respectively. After washing twice with PBS, bacterial cells were then incubated with 50 μg/mL propidium iodide (PI) for 15 min and analyzed using a FACS Calibur Flow Cytometer (BD, United States) ([Stearns-Kurosawa et al., 2011]).

[10] = test system: murine erythrocytes; assay type: cell-based, mouse
Method: The hemolysis of peptides was evaluated by determining the amount of hemoglobin that was released from fresh mouse erythrocytes ([Flamm et al., 2019]). The blood cells were washed three times with 10 mM PBS (pH 7.4) and centrifuged for 10 min (1,500 rpm). Erythrocyte solution (8%, v/v) was mixed with peptide solutions (1:1) and incubated for 1 h at 37°C. The mixture was then centrifuged for 5 min (1,500 rpm), and the absorbance of supernatants was measured at 540 nm. Values of 0 and 100% hemolysis were determined in PBS and 0.1% triton X-100, respectively. The hemolysis of peptides was calculated using the following formula: Hemolysis (%) = [(Abs treated sample – Abs negative control)/(Abs positive control – Abs negative control)] × 100.

[11] = test system: Gram-positive bacteria; experiment: Geometric mean of MICs and therapeutic index; assay type: cell-based; details: for GM Gram-positive bacteria: geometric mean (GM) of MICs against Gram-positive bacteria; for TI Gram-positive bacteria: therapeutic index (TI), cell selectivity
Method: as §1
(§2) The geometric mean (GM) of MICs of peptides against Gram-negative and Gram-positive bacteria was calculated, and the result was shown in Table 3. […] For Gram-negative bacteria, the TI value of GUON6NH2 (53.33) was very close to N6NH2 (58.18), while for positive bacteria, the TI value of GUON6NH2 (12.8) was slightly higher than that of N6NH2 (12.31), indicating their huge therapeutic potential. For Gram-positive bacteria, DN6NH2 had the highest TI value and the best therapeutic potential.

[12] = test system: Gram-negative bacteria; experiment: Geometric mean of MICs and therapeutic index; assay type: cell-based; details: for GM Gram-negative bacteria: geometric mean (GM) of MICs against Gram-negative bacteria; for TI Gram-negative bacteria: therapeutic index (TI), cell selectivity
Method: as §1, §2

[13] = test system: Gram-negative and Gram-positive bacteria (ALL); experiment: Geometric mean of MICs and therapeutic index; assay type: cell-based; details: for GM ALL: geometric mean (GM) of MICs, all strains; for TI ALL: therapeutic index (TI), cell selectivity
Method: as §1, §2

[14] = test system: Escherichia coli CVCC195; assay type: cell-based
Method: as §1

[15] = test system: Edwardsiella tarda; assay type: cell-based
Method: as §1

[16] = test system: Staphylococcus aureus ATCC43300; assay type: cell-based
Method: as §1

[17] = test system: Salmonella typhimurium CVCC533; assay type: cell-based; details: murium CVCC533
Method: as §1

[18] = test system: Staphylococcus hyicus 437-2; assay type: cell-based
Method: as §1

[19] = test system: Salmonella pullorum CVCC1802; assay type: cell-based
Method: as §1

[20] = test system: S. typhimurium ATCC14028; assay type: cell-based, Salmonella typhimurium
Method: as §1

[21] = test system: E. tarda; experiment: SEM and TEM morphology; assay type: cell-based, Edwardsiella tarda; details: 4× MIC, 2 h
Method: To further characterize the bactericidal effects of the peptides, scanning electron microscopy (SEM) and transmission electron microscopy (TEM) were used to visualize morphological changes ([Yang et al., 2019]). E. tarda was cultured to logarithmic growth stage (10^8 CFU/mL) and diluted with 0.01 M PBS (pH 7.4) to OD600 nm = 1. E. tarda cells were treated with 4× MIC peptides at 37°C for 2 h and the untreated cells were used as the control. Briefly, after centrifugation, the bacterial cells were washed three times with 0.1 M PBS (pH 7.2) and fixed overnight at 4°C with 2.5% glutaraldehyde. After washing again, the cells were fixed with 1% osmium tetroxide (OsO4) for 2 h and dehydrated in a graded ethanol series (50%–70%–85%–95% × 2–100%, × 2) for 15 min, respectively. The samples were then dried by CO2, sputtered with gold-palladium, and observed on a QUANTA200 SEM (FEI, Philips, Netherlands).
E. tarda cells were treated peptides before fixation as described above. The bacteria were washed with 0.01 M PBS (pH 7.4) for five times, 7 min each time, and fixed with 1% osmium acid buffer (4°C) for 1 h. After dehydration with a graded acetone series (30%–50%–70%–85%–95%–100% × 3), the cells were immersed in mixtures of acetone and resin (3:1, 1:1 and 1:3, respectively) for 40 min and in a pure epoxy resin overnight. The samples were then embedded in embedding medium and polymerized at 45°C for 3 h and at 65°C for 24 h, respectively. The sections were prepared using an ultramicrotome, stained with 1% uranyl acetate, and visualized by a JEM1400 (JEDL, Tokyo, Japan).

[22] = test system: E. tarda; experiment: Time-killing curve; assay type: cell-based, Edwardsiella tarda; details: 2× or 4× MIC, MHB, 1 × 10^5 CFU/mL, 28°C
Method: Time-killing curve of peptides was performed according to the previous method ([Flamm et al., 2019]). E. tarda was cultured to logarithmic phase, diluted in Mueller Hinton broth (MHB) (1 × 10^5 CFU/mL) containing 1×, 2×, or 4× MIC of peptides, and cultured at 28°C (200 rpm). PBS was added as a control. Bacterial samples (100 μL) were removed at different time intervals (0, 0.5, 1, 1.5, 2, 4, 6, 8, 10, 12, 22, and 24 h) and were counted on MH solid plates. The time-killing curves of peptides were plotted. Bacterial cells treated with 2× MIC norfloxacin and without treatment were used as the positive and blank controls, respectively.

| SMILES | MIC [1] [µg/mL] | MIC [2] [µg/mL] | MIC [3] [µg/mL] | MIC [4] [µg/mL] | ability to bind to LPS (BC probe displacement) [5] | MIC [6] [µg/mL] | MIC [7] [µg/mL] | MIC [8] [µg/mL] | penetration rate (PI-stained cells) [9] | MHC [10] [µg/mL] | GM Gram-positive bacteria [11] [µg/mL] | TI Gram-positive bacteria [11] | GM Gram-negative bacteria [12] [µg/mL] | TI Gram-negative bacteria [12] | GM ALL [13] [µg/mL] | TI ALL [13] | MIC [14] [µg/mL] | MIC [15] [µg/mL] | MIC [16] [µg/mL] | MIC [17] [µg/mL] | also measured |
| --- | --- | --- | --- | --- | --- | --- | --- | --- | --- | --- | --- | --- | --- | --- | --- | --- | --- | --- | --- | --- | --- |
| CC(C)[C@H]1NC(=O)CNC(=O)[C@@H](CC(N)=O)NC(=O)[C@@H](CCCNC(=N)N)NC(=O)[C@@H](Cc2ccc(O)cc2)NC(=O)[C@@H](C(C)C)NC(=O)[C@H](NC(=O)[C@H](NC(=O)[C@@H](CC(N)=O)NC(=O)[C@@H](Cc2c[nH]c3ccccc23)NC(=O)[C@@H](C)NC(=O)[C@@H](Cc2ccccc2)NC(=O)CN)C(C)C)CSSC[C@H](C(=O)N[C@H](Cc2c[nH]cn2)C(=O)N[C@H](CCCNC(=N)N)C(=O)N[C@H](CCCNC(=N)N)C(=O)N[C@H](C)C(=O)N[C@H](CC(N)=O)C(N)=O)NC(=O)[C@@H](C(C)C)NC(=O)[C@@H](CCCNC(=N)N)NC1=O [DN6NH2] | 16 (≈ 6.46 µM) | 2 (≈ 0.808 µM) | 4 (≈ 1.62 µM) | 8 (≈ 3.23 µM) | V112N6NH2 > GUON6NH2 > N6NH2 > DN6NH2 > N6PNH2 | 16 (≈ 6.46 µM) | 8 (≈ 3.23 µM) | 4 (≈ 1.62 µM) | 1.3–16.1% | >128 | 8 | 32 | 8.2 | 31.22 | 8.13 | 31.49 | 8 (≈ 3.23 µM) | 8 (≈ 3.23 µM) | 4 (≈ 1.62 µM) | 16 (≈ 6.46 µM) | MIC [18]: 8 µg/mL (≈ 3.23 µM); MIC [19]: 8 µg/mL (≈ 3.23 µM); MIC [20]: 8 µg/mL (≈ 3.23 µM); morphological changes by SEM [21]: no significant change in the bacterial cell structures |
| CC(C)[C@@H]1NC(=O)CNC(=O)[C@H](CC(N)=O)NC(=O)[C@H](CCCNC(=N)N)NC(=O)[C@H](Cc2ccc(O)cc2)NC(=O)[C@H](C(C)C)NC(=O)[C@@H](NC(=O)[C@@H](NC(=O)[C@H](CC(N)=O)NC(=O)[C@H](Cc2c[nH]c3ccccc23)NC(=O)[C@H](C)NC(=O)[C@H](Cc2ccccc2)NC(=O)CN)C(C)C)CSSC[C@@H](C(=O)N[C@@H](Cc2c[nH]cn2)C(=O)N[C@@H](CCCNC(=N)N)C(=O)N2CCC[C@H]2C(=O)N[C@@H](C)C(=O)N[C@@H](CC(N)=O)C(N)=O)NC(=O)[C@H](C(C)C)NC(=O)[C@H](CCCNC(=N)N)NC1=O [N6PNH2] (H-GFAWNVCVYRNGVRVCHRPAN-NH2; disulfide 7-16 (inferred); N-terminus assumed) | 16 (≈ 6.62 µM) | 2 (≈ 0.828 µM) | 4 (≈ 1.66 µM) | 8 (≈ 3.31 µM) | V112N6NH2 > GUON6NH2 > N6NH2 > DN6NH2 > N6PNH2 | >64 | >64 | 64 (≈ 26.5 µM) | 0.42–2.20% | >128 | 115.2 | 2.22 | 13.4 | 19.1 | 47.33 | 5.41 | 8 (≈ 3.31 µM) | 32 (≈ 13.2 µM) | >64 | 32 (≈ 13.2 µM) | MIC [18]: >64 µg/mL; MIC [19]: 8 µg/mL (≈ 3.31 µM); MIC [20]: 16 µg/mL (≈ 6.62 µM) |
| CC(C)[C@H](N)C(=O)N[C@@H](Cc1ccccc1)C(=O)N[C@@H](C)C(=O)N[C@@H](Cc1c[nH]c2ccccc12)C(=O)N[C@@H](CC(N)=O)C(=O)N[C@H](C(=O)N[C@H]1CSSC[C@@H](C(=O)N[C@@H](Cc2c[nH]cn2)C(=O)N[C@@H](CCCNC(=N)N)C(=O)N[C@@H](CCCNC(=N)N)C(=O)N[C@@H](C)C(=O)N[C@@H](CC(N)=O)C(N)=O)NC(=O)[C@H](C(C)C)NC(=O)[C@H](CCCNC(=N)N)NC(=O)[C@H](C(C)C)NC(=O)[C@H](C(C)C)NC(=O)[C@H](CC(N)=O)NC(=O)[C@H](CCCNC(=N)N)NC(=O)[C@H](Cc2ccc(O)cc2)NC(=O)[C@H](C(C)C)NC1=O)C(C)C [V112N6NH2] (H-VFAWNVCVYRNVVRVCHRRAN-NH2; disulfide 7-16 (inferred); N-terminus assumed) | 16 (≈ 6.25 µM) | 2 (≈ 0.782 µM) | 4 (≈ 1.56 µM) | 8 (≈ 3.13 µM) | V112N6NH2 > GUON6NH2 > N6NH2 > DN6NH2 > N6PNH2 | 16 (≈ 6.25 µM) | 32 (≈ 12.5 µM) | 16 (≈ 6.25 µM) | 0.85–30.1% | >128 | 25.6 | 10 | 11.8 | 21.69 | 16.4 | 15.61 | 8 (≈ 3.13 µM) | 32 (≈ 12.5 µM) | 32 (≈ 12.5 µM) | 16 (≈ 6.25 µM) | MIC [18]: 32 µg/mL (≈ 12.5 µM); MIC [19]: 8 µg/mL (≈ 3.13 µM); MIC [20]: 16 µg/mL (≈ 6.25 µM); time to completely kill E. tarda [22]: ≤ 6 h; morphological changes by SEM [21]: some protrusions were observed on the cell surfaces |
| CC1(C)S[C@@H]2[C@H](NC(=O)[C@H](N)c3ccccc3)C(=O)N2[C@H]1C(=O)O [ampicillin, Ampicillin, reference compound] |  |  |  |  | did not replace BC probe to bind to LPS |  |  |  |  |  |  |  |  |  |  |  |  |  |  |  |  |

Source: publication PMC7985170, “Marine Peptide-N6NH2 and Its Derivative-GUON6NH2 Have Potent Antimicrobial Activity Against Intracellular Edwardsiella tarda in vitro and in vivo” (Frontiers in Microbiology, 2021)
